Test results as given in patent US20260125359A1, “HETEROARYL COMPOUNDS AS MULTI-TARGET PROTEIN KINASE INHIBITORS” (FUJIAN HAIXI PHARMACEUTICALS CO., LTD., priority 2023, published 2026).

test system: M-NFS-60 cells; assay: M-NFS-60 cell in vitro assay (CCK, 48 h, M-CSF factor medium); format: cell-based; conditions: M-NFS-60 cells; read-out: M-NFS-60cellassay IC50
Summary of the method: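 Mouse M-NFS-60 cells (2000/well) in RPMI-1640 with 10% serum and M-CSF (25 ng/ml) were pre-incubated 4 h, then exposed to DMSO-diluted compound gradients for 48 h at 5% CO2. Viability read by CCK, 2 h, OD 450 nm; IC50 from curve fitting.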

Q: With `Cn1cc(-c2cnc(N)c(O[C@H]3CCc4c(C(=O)Nc5cccc(C6CC6)c5)cccc43)c2)cn1` [Compound 4, (S)-1-((2-amino-5-(1-methyl-1H-pyrazol-4-yl)pyridin-3-yl)oxy)-N-(3-cyclopropylphenyl)-2,3-dihydro-1H-indene-4-carboxamide] as the compound, how does the IC50 read?
A: < 50 nM

Q: For `Cc1cccc(NC(=O)c2cccc3c2CC[C@@H]3Nc2cncc(-c3cnn(C)c3)c2)c1` [Compound 13, (S)-1-((5-(1-methyl-1H-pyrazol-4-yl)pyridin-3-yl)amino)-N-(m-tolyl)-2,3-dihydro-1H-indene-4-carboxamide], which IC50 is on record?
A: < 50 nM

Q: For `Cn1cc(-c2cncc(N[C@H]3CCc4c(C(=O)Nc5cncc(Cl)c5)cccc43)c2)cn1` [Compound 14aa, (S)—N-(5-chloropyridin-3-yl)-1-((5-(1-methyl-1H-pyrazol-4-yl)pyridin-3-yl)amino)-2,3-dihydro-1H-indene-4-carboxamide], which IC50 is on record?
A: < 50 nM

Q: For `Cn1cc(-c2cncc(N[C@H]3CCc4c(C(=O)Nc5ccc(C(F)(F)F)nc5)cccc43)c2)cn1` [Compound 14ah], which IC50 is on record?
A: < 50 nM

Q: How did the IC50 turn out when `CN1CCc2ccc(NC(=O)c3cccc4c3CC[C@@H]4Nc3cncc(-c4cnn(C)c4)c3)cc2C1` [Compound 14ap] was run?
A: < 50 nM

Q: How did the IC50 turn out when `Cc1cncc(NC(=O)c2cccc3c2CC[C@@H]3Nc2cncc(-c3cnn(C)c3)c2)c1` [Compound 14as] was run?
A: < 50 nM

Q: For `CN1CCc2nc(NC(=O)c3cccc4c3CC[C@@H]4Nc3cncc(-c4cnn(C)c4)c3)sc2C1` [Compound 14ba], which IC50 is on record?
A: < 50 nM

Q: For `Cc1cccc(C(=O)Nc2cccc3c2CC[C@@H]3Oc2cncc(-c3cnn(C)c3)c2)c1` [Compound 15, (S)-3-methyl-N-(1-((5-(1-methyl-1H-pyrazol-4-yl)pyridin-3-yl)oxy)-2,3-dihydro-1H-inden-4-yl)benzamide], which IC50 is on record?
A: 200 to 500 nM

Q: Which IC50 does the source give for `Cn1cc(-c2cncc(O[C@H]3CCc4c(C(=O)Nc5cncc(Cl)c5)cccc43)c2)cn1` [Compound 19a, (S)—N-(5-chloropyridin-3-yl)-1-((5-(1-methyl-1H-pyrazol-4-yl)pyridin-3-yl)oxy)-2,3-dihydro-1H-indene-4-carboxamide] here?
A: < 50 nM

Q: `Cn1cc(-c2cncc(O[C@H]3CCc4c(C(=O)Nc5cccc(C6CC6)c5)cccc43)c2)cn1` [Compound 19b] was tested. Which IC50 did it give?
A: < 50 nM

Q: For `CN1CCc2nc(NC(=O)c3cccc4c3CC[C@@H]4Oc3cncc(-c4cnn(C)c4)c3)sc2C1` [Compound 19f], which IC50 is on record?
A: 50 to 200 nM

Q: How did the IC50 turn out when `CN(C)Cc1cncc(NC(=O)c2cccc3c2CC[C@@H]3Oc2cncc(-c3cnn(C)c3)c2)c1` [Compound 19h] was run?
A: > 500 nM

Q: `Cc1cncc(NC(=O)c2cccc3c2CC[C@@H]3Oc2cncc(-c3cnn(C)c3)c2)c1` [Compound 19j] was tested. Which IC50 did it give?
A: < 50 nM

Q: With `Cc1cc(NC(=O)c2cccc3c2CC[C@@H]3Oc2cncc(-c3cnn(C)c3)c2)cc(C)n1` [Compound 19k, (S)—N-(2,6-dimethylpyridin-4-yl)-1-((5-(1-methyl-1H-pyrazol-4-yl)pyridin-3-yl)oxy)-2,3-dihydro-1H-indene-4-carboxamide] as the compound, how does the IC50 read?
A: < 50 nM

Q: `CN(c1cncc(-c2cnn(C)c2)c1)[C@H]1CCc2c(C(=O)Nc3cncc(Cl)c3)cccc21` [Compound 21, (S)—N-(5-chloropyridin-3-yl)-1-(methyl (5-(1-methyl-1H-pyrazol-4-yl)pyridin-3-yl)amino)-2,3-dihydro-1H-indene-4-carboxamide] was tested. Which IC50 did it give?
A: 50 to 200 nM

Q: For `CN(c1cncc(-c2cnn(C)c2)c1)[C@H]1CCc2c(C(=O)Nc3cccc(C4CC4)c3)cccc21` [Compound 22a, (S)—N-(3-cyclopropylphenyl)-1-(methyl (5-(1-methyl-1H-pyrazol-4-yl)pyridin-3-yl)amino)-2,3-dihydro-1H-indene-4-carboxamide], which IC50 is on record?
A: < 50 nM

Q: With `Cn1cc(-c2cncc(N[C@H]3CCc4c(C(=O)Nc5nn(C)c6ccccc56)cccc43)n2)cn1` [Compound 27g, (S)—N-(1-methyl-1H-indazol-3-yl)-1-((6-(1-methyl-1H-pyrazol-4-yl)pyrazin-2-yl)amino)-2,3-dihydro-1H-indene-4-carboxamide] as the compound, how does the IC50 read?
A: < 50 nM

Q: With `Cn1cc(-c2cncc(N[C@H]3CCc4c(Nc5cc(C(C)(C)C)on5)cccc43)c2)cn1` [Compound 41, (S)—N^4-(5-(tert-butyl)isoxazol-3-yl)-N^1-(5-(1-methyl-1H-pyrazol-4-yl)pyridin-3-yl)-2,3-dihydro-1H-indene-1,4-diamine] as the compound, how does the IC50 read?
A: < 50 nM

Q: Which IC50 does the source give for `Cn1cc(-c2cncc(N[C@H]3CCc4c(Nc5noc(C(C)(C)C)n5)cccc43)c2)cn1` [Compound 42o] here?
A: 50 to 200 nM

Q: `Cn1ncc2ncc(N[C@H]3CCc4c(C(=O)Nc5cccc(C6CC6)c5)cccc43)cc21` [Compound 73, (S)—N-(3-cyclopropylphenyl)-1-((1-methyl-1H-pyrazolo[4,3-b]pyridin-6-yl)amino)-2,3-dihydro-1H-indene-4-carboxamide] was tested. Which IC50 did it give?
A: < 50 nM

Q: With `Cn1cc2ncc(N[C@H]3CCc4c(C(=O)Nc5nc(C6CC6)cs5)cccc43)cc2n1` [Compound 74h, (S)—N-(4-cyclopropylthiazol-2-yl)-1-((2-methyl-2H-pyrazolo[4,3-b]pyridin-6-yl)amino)-2,3-dihydro-1H-indene-4-carboxamide] as the compound, how does the IC50 read?
A: < 50 nM

Q: How did the IC50 turn out when `Cn1ncc2ncc(O[C@H]3CCc4c(C(=O)Nc5cncc(Cl)c5)cccc43)cc21` [Compound 76ac, (S)—N-(5-chloropyridin-3-yl)-1-((1-methyl-1H-pyrazolo[4,3-b]pyridin-6-yl)oxy)-2,3-dihydro-1H-indene-4-carboxamide] was run?
A: < 50 nM

Q: For `Cn1cc2ncc(O[C@H]3CCc4c(C(=O)Nc5cncc(Cl)c5)cccc43)cc2n1` [Compound 76ai], which IC50 is on record?
A: < 50 nM

Q: How did the IC50 turn out when `Cn1cc2ncc(O[C@H]3CCc4c(C(=O)Nc5nn(C)c6ccccc56)cccc43)cc2n1` [Compound 76al] was run?
A: < 50 nM

Q: How did the IC50 turn out when `Cn1cc2ncc(O[C@H]3CCc4c(C(=O)Nc5nn(C)c6cccc(F)c56)cccc43)cc2n1` [Compound 76aw] was run?
A: < 50 nM

Q: How did the IC50 turn out when `Cc1cccc(NC(=O)c2cccc3c2CC[C@@H]3Oc2cnc3cn(C)nc3c2)n1` [Compound 76bd] was run?
A: < 50 nM

Q: Which IC50 does the source give for `CN(c1cnc2cn(C)nc2c1)[C@H]1CCc2c(C(=O)Nc3cncc(Cl)c3)cccc21` [Compound 80k] here?
A: < 50 nM

Q: For `CN(c1cnc2cn(C)nc2c1)[C@H]1CCc2c(C(=O)Nc3nn(C)c4ccccc34)cccc21` [Compound 80l], which IC50 is on record?
A: < 50 nM

Q: For `Cn1ncc2ncc(N[C@H]3CCc4c(Nc5cc(C(C)(C)C)on5)cccc43)nc21` [Compound 86, (S)—N^4-(5-(tert-butyl)isoxazol-3-yl)-N1-(1-methyl-1H-pyrazolo[3,4-b]pyrazin-6-yl)-2,3-dihydro-1H-indene-1,4-diamine], which IC50 is on record?
A: < 50 nM
